Experimental data as given in article PMC7181245, “Antiestrogenic Activity and Possible Mode of Action of Certain New Nonsteroidal Coumarin-4-acetamides” (Molecules, 2020).
Like-named read-outs stand apart in the source and are kept apart here.

Columns and labels:
[1] = system: MCF-7 cell line (ER+ breast cancer cell line); assay: MTT cytotoxicity assay, MCF-7 cell line; conditions: for IC50: Homo sapiens, MCF7, read-out: IC50 (μM) ± S.E.M MCF-7 (cytotoxicity)
Method: (§1) The cytotoxic activity of the synthesized compounds IIIa–h was evaluated in vitro against the human breast adenocarcinoma MCF7 (ER^+ breast cancer cell line) and the MDA-MB-231 (triple-negative breast cancer cell line, TNBC), using camptothecin as a pyranone-bearing reference standard.
(§2) The cytotoxicity of compounds Ia,b, IIa,b, and IIIa–h against the MCF-7 cell line (ER+ breast cancer cell line) and MDA-MB-231 (triple-negative breast cancer cell line, TNBC) was determined using camptothecin as a pyranone-bearing reference standard.

[2] = system: MDA-MB-231 (triple-negative breast cancer cell line, TNBC); assay: MTT cytotoxicity assay, MDA-MB-231 cell line
Method: as §1, §2

aromatase = target: T1, aromatase (Homo sapiens, UniProt P11511); assay: In vitro aromatase inhibition (sandwich enzyme immunoassay); conditions: for IC50: IC50 (μM) ± S.E.M. (aromatase inhibition activity)
T1 sequence (P11511 1-503): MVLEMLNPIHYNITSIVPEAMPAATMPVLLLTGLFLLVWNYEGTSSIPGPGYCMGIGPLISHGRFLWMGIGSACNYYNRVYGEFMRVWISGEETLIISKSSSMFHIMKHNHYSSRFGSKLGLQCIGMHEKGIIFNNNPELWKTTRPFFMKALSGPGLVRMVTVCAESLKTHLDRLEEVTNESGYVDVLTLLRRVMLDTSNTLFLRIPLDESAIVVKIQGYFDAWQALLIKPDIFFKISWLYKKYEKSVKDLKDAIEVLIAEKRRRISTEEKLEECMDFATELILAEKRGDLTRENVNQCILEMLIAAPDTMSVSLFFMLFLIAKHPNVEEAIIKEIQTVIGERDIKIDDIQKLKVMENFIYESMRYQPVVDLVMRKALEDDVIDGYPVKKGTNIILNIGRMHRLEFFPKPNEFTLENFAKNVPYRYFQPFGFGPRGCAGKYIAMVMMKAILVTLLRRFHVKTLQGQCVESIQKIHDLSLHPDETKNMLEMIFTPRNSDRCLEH
Source text: Sandwich enzyme immunoassay was adopted for aromatase inhibition assessment [38].

[3] = system: estrogen-dependent human breast cancer MCF-7 cell proliferation induced by 17-β-estradiol; assay: In vitro antiestrogenic activity: MCF-7 cell proliferation assay (MTT) in the presence of 17-β-estradiol; type: cell-based; conditions: inhibition of MCF-7 cell proliferation induced by 17-β-estradiol, read-out: IC50 (μM) ± S.E.M. MCF-7 (in vitro antiestrogenic activity)
Method: The in vitro antiestrogenic activity of the selected target compounds IIIa,b, IIId, and IIIf,g was studied through an estrogen-dependent human breast cancer MCF-7 cell proliferation assay in the presence of 17-β-estradiol. The ability of the tested compounds to inhibit cell proliferation induced by 17-β-estradiol was determined (Table 3 and Figure 4).
The antiestrogenic activity of the test compounds was examined by performing a 3-(4,5-dimethylthiazol-2-yl)-2,5-diphenyl tetrazolium bromide (MTT) assay of the MCF-7 cell line. In this experiment, MCF-7 cells were treated with 17β-estradiol (+ve cell proliferation compound). The effect of various concentrations of the tested compounds on cell proliferation in the presence of 17β-estradiol was measured.

MCF-7 = system: MCF-7; design: method as in PMID 9391160, PMID 15177442; conditions: cited from earlier work
[4] = Homo sapiens, MDA-MB-231, read-out: IC50 (μM) ± S.E.M MDA-MB-231 (cytotoxicity), MTT assay, MDA-MB-231 cells
[5] = ratio of IC50 values vs camptothecin

Structure (SMILES)	IC50 (aromatase) [µM]	IC50 ([3]; Homo sapiens, MCF7) [µM]	melting point [°C]	IC50 [1] [µM]	IC50 [2, 4] [µM]	other results
CC[C@@]1(O)C(=O)OCc2c1cc1n(c2=O)Cc2cc3ccccc3nc2-1 [Camptothecin, reference compound]	–	–	–	4.41 ± 0.28	19.2 ± 1.14	–
COc1ccc2oc(=O)cc(CC(=O)Nc3ccc(OC)c(O)c3)c2c1 [IIIe, N-(3-Hydroxy-4-methoxyphenyl)-2-(6-methoxy-2-oxo-2H-chromen-4-yl)acetamide]	17.4	–	173 to 174	15.5 ± 1.24	2.1	aromatase inhibition activity (in words) (aromatase): moderate inhibitory activity; IC50 ([2]; human): 2.14 ± 0.06 µM
COc1ccc2c(CC(=O)Nc3ccc(Br)cc3)cc(=O)oc2c1 [IIIg, N-(4-Bromophenyl)-2-(7-methoxy-2-oxo-2H-chromen-4-yl)acetamide]	27.1 ± 1.38	64.4 ± 4.12	212 to 213	0.72 ± 0.02	90.8 ± 3.84	–
COc1ccc2c(CC(=O)O)cc(=O)oc2c1 [IIb, (7-methoxy-2-oxo-2H-chromen-4-yl)acetic acid]	–	–	–	8.08 ± 0.25	216 ± 13.2	–
CC(C)COC(=O)c1ccccc1C(=O)O [Monoisobutyl phthalate (MIBP), Monoisobutyl phthalate, reference compound]	–	–	–	–	–	IC50 [3]: 46.4 ± 3.14 µM
O=c1oc2cc(O)ccc2c(Cc2ccc(OCCN3CCCCC3)cc2)c1-c1ccccc1 [SP500263]	–	–	–	–	–	agonist activity in the MCF-7 proliferation assay (MCF-7): undesirable agonist activity

The next lines start with results.

IC50 (aromatase) [µM]	IC50 ([3]; Homo sapiens, MCF7) [µM]	melting point [°C]	Structure (SMILES)	IC50 [1] [µM]	IC50 [2, 4] [µM]	other results
22.5 ± 3.4	62 ± 4.02	167 to 168	COc1ccc2oc(=O)cc(CC(=O)N3CCCCC3)c2c1 [IIIa, 6-Methoxy-4-(2-oxo-2-(piperidin-1-yl)ethyl)-2H-chromen-2-one]	1.82 ± 0.03	38.2 ± 1.52	–
89.1 ± 6.2	29.5 ± 3.25	135 to 136	COc1ccc2c(CC(=O)N3CCCCC3)cc(=O)oc2c1 [IIIb, 7-Methoxy-4-(2-oxo-2-(piperidin-1-yl)ethyl)-2H-chromen-2-one]	0.32 ± 0.04	12.9 ± 1.17	potency relative to the reference standard camptothecin, MCF-7 [1, 5]: about 14 fold
1100 ± 52.4	–	219 to 220	COc1ccc2oc(=O)cc(CC(=O)Nc3ccccc3)c2c1 [IIIc, 2-(6-Methoxy-2-oxo-2H-chromen-4-yl)-N-phenylacetamide]	10.9 ± 0.99	4.6 ± 0.32	–
69.9 ± 3.91	214 ± 12.1	202 to 203	COc1ccc2oc(=O)cc(CC(=O)Nc3ccc(Br)cc3)c2c1 [IIId, N-(4-Bromophenyl)-2-(6-methoxy-2-oxo-2H-chromen-4-yl)acetamide]	2.8 ± 0.04	22.8 ± 1.54	–
332 ± 18.2	99.6 ± 6.39	217 to 218	COc1ccc2c(CC(=O)Nc3ccccc3)cc(=O)oc2c1 [IIIf, 2-(7-Methoxy-2-oxo-2H-chromen-4-yl)-N-phenylacetamide]	5.69 ± 0.08	6.9	IC50 ([2]; human): 6.94 ± 0.41 µM
–	–	188 to 189	COc1ccc2c(CC(=O)Nc3ccc(OC)c(O)c3)cc(=O)oc2c1 [IIIh, N-(3-Hydroxy-4-methoxyphenyl)-2-(7-methoxy-2-oxo-2H-chromen-4-yl)acetamide]	5100 ± 241	14.1 ± 0.61	–
32.2 ± 2.39	–	178 to 179	COc1ccc2oc(=O)cc(CC(=O)O)c2c1 [IIa, (6-Methoxy-2-oxo-2H-chromen-4-yl)acetic acid]	1 ± 0.03	80.2 ± 4.23	–
–	–	153 to 154	COC(=O)Cc1cc(=O)oc2ccc(OC)cc12 [Ia, Methyl (6-methoxy-2-oxo-2H-chromen-4-yl)acetate]	13.9 ± 1.15	47.5 ± 2.51	–
14.5 ± 1.32	–	–	COC(=O)Cc1cc(=O)oc2cc(OC)ccc12 [Ib, Methyl (7-methoxy-2-oxo-2H-chromen-4-yl)acetate]	1.44 ± 0.02	1 ± 0.04	potency relative to the reference standard camptothecin, MDA-MB-231 [2, 5]: about 19 times
